Here are results for 1 molecule from paper PMC8508694, “Insights into the Genetic Variations of Human Cytochrome P450 2C9: Structural Analysis, Characterization and Comparison” (International Journal of Molecular Sciences, 2021).

One series concerns the target T1, CYP2C9*8 (Homo sapiens, UniProt P11712, R150H/V490I).
T1 construct: residues 1 to 23 (N-terminal transmembrane anchor) replaced with MAKKT, V490I, C-terminal four-histidine tag
Briefly: ([…] Å) and ITC. The format is binding.

In another series the target is T2, CYP2C9*3 (Homo sapiens, UniProt P11712, I359L/V490I).
T2 construct: residues 1 to 23 (N-terminal transmembrane anchor) replaced with MAKKT, V490I, C-terminal four-histidine tag
The series is described as follows: ITC. The format is binding.

T1 sequence (P11712 24-490 R150H/V490I): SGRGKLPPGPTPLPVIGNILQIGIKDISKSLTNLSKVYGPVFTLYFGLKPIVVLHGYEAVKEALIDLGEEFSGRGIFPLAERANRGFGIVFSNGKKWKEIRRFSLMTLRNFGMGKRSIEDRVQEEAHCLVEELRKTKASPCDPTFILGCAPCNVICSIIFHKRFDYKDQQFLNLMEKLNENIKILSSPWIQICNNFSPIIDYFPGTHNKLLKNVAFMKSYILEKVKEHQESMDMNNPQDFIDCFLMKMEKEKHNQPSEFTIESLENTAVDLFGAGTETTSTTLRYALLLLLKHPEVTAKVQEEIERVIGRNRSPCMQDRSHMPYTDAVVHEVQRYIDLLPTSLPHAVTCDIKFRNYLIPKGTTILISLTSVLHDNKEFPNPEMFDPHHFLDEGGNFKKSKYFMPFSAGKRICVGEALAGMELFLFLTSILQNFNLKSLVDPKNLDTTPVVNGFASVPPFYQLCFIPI
T2 sequence (P11712 24-490 I359L/V490I): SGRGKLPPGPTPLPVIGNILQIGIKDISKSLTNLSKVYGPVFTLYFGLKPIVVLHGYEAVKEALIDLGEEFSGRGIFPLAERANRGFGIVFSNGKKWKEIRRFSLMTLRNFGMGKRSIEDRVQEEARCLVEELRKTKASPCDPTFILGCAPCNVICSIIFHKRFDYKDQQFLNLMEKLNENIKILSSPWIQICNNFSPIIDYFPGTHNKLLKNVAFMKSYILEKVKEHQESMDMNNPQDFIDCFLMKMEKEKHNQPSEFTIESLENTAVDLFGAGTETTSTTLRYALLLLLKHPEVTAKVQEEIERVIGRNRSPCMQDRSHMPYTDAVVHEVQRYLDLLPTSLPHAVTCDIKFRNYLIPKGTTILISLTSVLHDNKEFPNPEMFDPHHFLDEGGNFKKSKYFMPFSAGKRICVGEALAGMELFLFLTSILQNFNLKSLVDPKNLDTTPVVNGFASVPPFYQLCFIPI

With `CCCCc1nc(Cl)c(CO)n1Cc1ccc(-c2ccccc2-c2nn[nH]n2)cc1` [losartan], the figures for the Kd at CYP2C9*8 and on CYP2C9*3 were 8.95 ± 0.97 µM and 24.5 ± 2.7 µM, respectively.

For orientation: Kd means the free concentration of one partner at which half of the binding sites on the other are occupied at equilibrium, for simple one-to-one binding.
